In PMC5299588, “Lumican Peptides: Rational Design Targeting ALK5/TGFBRI” (Scientific Reports, 2017):
“Also recorded” adds a separate entry of the source. No end group written: not given here.

Legend:
corneal epithelium [1] = experiment: In vivo corneal epithelium debridement wound healing in Lum−/− mice, peptide eye drops; set-up: species or system C57BL/6 genetic background; conditions: drops 0.3 μM every 15 min for 5 h
Source text: Lum null (Lum^−/−) mice were also used to examine the efficacy of LumC peptides in promoting epithelium sheet migration following debridement wound (Supplemental Fig. S2).
(§1) Use of experimental mice is in compliance to the ARVO statement for the use of animals in vision research and all procedures are approved by IACUC of the University of Cincinnati. Lum^−/− mice in C57BL/6 genetic background aged 7–8 weeks were used in this study. Mice were anesthetized with intraperitoneal injections of a combination of ketamine (10 mg/kg; Henry Shein) and xylazine (1 mg/kg; Henry Shein) prior to the surgery, and a drop of proparacaine hydrochloride 0.5% (Alcon) was applied to the cornea to deliver local anesthesia before injury. Briefly, a 2 mm diameter trephine was used to demarcate the central epithelial region of the eye and the epithelium within the demarcated region was mechanically removed using an Algerbrush II (Alger Equipment Co., Inc., Lago Vista, TX) while viewing the cornea under a stereomicroscope (Stemi SC II stereomicroscope with epi-fluorescence attachment, Carl ZEISS). Eight mice per group were treated and the experiments were repeated at least two times. Each mouse was topically treated with one drop peptide solution (10 μl) at concentration of 0.3 μM or 10 μL PBS every 15 min for 5 h after wounding. After 5 h, mice were sacrificed. The eyes were excised and fixed in 4% paraformaldehyde in PB (0.1 M phosphate buffer, pH 7.4. whole mount corneas were stained with phalloidin and DAPI and image with a Zeiss Apo Tome microscope (Observer Z1). The migration of epithelium sheet was determined as previously described. In brief, migrated corneal epithelium was measured on whole mount samples in 5 different locations equally distributed around the entire circumference of the wound. The number of animals in each experimental group is on the bars in the bar chart. The statistical analyses as well as symbols are shown in the graph legend. PBS treated Lum^−/− mice were used as negative controls, in which the epithelium sheet migrated less than 50 μm in 5 h (Supplemental Fig. 2 for representative plots). Four Z-staged images were collected from each corneas, the epithelium migration was determined by the distance of migration of epithelium front to the initial injured line as previously described.

corneal epithelium [2] = experiment: In vivo corneal epithelium debridement wound healing in mice, peptide eye drops; set-up: species or system mouse; conditions: for promotion of corneal epithelium wound healing: debridement wound, eye drops 0.3 μM every 15 min for 5 h
Description: To confirm peptide action promoting corneal epithelium wound healing in vivo, mice were subjected to a 2 mm with corneal epithelium debridement. The injured corneas were treated with 10 μl eye drops lumican peptides (0.3 μM) every 15 min for 5 h as previously described. Migration distance was measured between the original wound edge and the wound front. In Lumikine (LumC13C-A) treated corneas, the epithelium sheet moved ∼144 μm. […] The average epithelium migration (μm) and standard deviation were calculated from n corneas of each of two separate experiments.
as §1

ALK5 [3] = target: T1, ALK5 (Homo sapiens, UniProt P36897); experiment: kcat/Km of peptides and loss of binding outside EVTLN region; conditions: method not described
T1 sequence (P36897 34-503): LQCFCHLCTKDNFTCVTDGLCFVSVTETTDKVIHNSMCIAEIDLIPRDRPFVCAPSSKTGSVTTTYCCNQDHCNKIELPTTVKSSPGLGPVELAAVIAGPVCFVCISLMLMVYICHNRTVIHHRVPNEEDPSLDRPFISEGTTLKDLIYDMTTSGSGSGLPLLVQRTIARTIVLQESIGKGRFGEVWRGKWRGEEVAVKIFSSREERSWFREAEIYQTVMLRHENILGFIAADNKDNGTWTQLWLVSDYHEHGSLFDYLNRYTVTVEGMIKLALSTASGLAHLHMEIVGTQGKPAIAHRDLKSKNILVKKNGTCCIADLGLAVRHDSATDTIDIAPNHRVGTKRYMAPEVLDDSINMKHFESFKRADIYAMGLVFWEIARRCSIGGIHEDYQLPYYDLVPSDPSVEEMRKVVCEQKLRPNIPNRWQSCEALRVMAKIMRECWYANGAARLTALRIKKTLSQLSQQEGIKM

ALK5 [4] = target: T1, ALK5; experiment: Binding affinity (Kd) of designed peptide; conditions: method not described; highest affinity in all designed peptides
prostate cancer cell = conditions: cited from earlier work
Source text: This could be of particular interest in conditions where patients display delayed wound healing, such as diabetes, which culminates in an increased risk of inflammation and scarring. The significance of synthesizing lumican peptides that mediate TGFbRI signaling also goes beyond promoting skin and corneal wound healing.

ALK5 [5] = target: T1, ALK5; conditions: cited from earlier work
Source text: Proteoglycans (PGs) are complex polymers composed of a core protein to which one or more glycosaminoglycan (GAGs) chains are covalently attached. They play a central role in physiology and disease[1][2][3][4][5][6]: modulating cell metabolism, mediating cell-cell trafficking, providing support for connective tissue and regulating of a wide range of effectors at both systemic and cellular levels. Small leucine rich proteoglycans (SLRPs) are a family of proteoglycans with small core proteins (~40 Kd) that contain hyper variable glycosylation sites with multivalent binding abilities. […] In this present study, we have accessed the binding of rationally designed LumC peptides with a related scoring approach, MM-GBSA, after docking and molecular dynamics simulations. In this method, docking scores are used to define initial binding sites, and more expensive and rigorous methods such as molecular dynamics (MD) simulation and binding free ...

[6] = Mass spectrometry of LumC13 in solution (dimerization); assay type: physicochemical; conditions: peptide in solution

## IKHLRLDGEVTLN [Hybrid 1/3, hybrid peptide …]
Corneal epithelium [1]
  promotion of epithelium wound healing / migration: little effect promoting wound healing

## IKHLRLDGNRISE [LumC33ΔC20, Lumican peptide …; control peptide]
Corneal epithelium [2]
  promotion of corneal epithelium wound healing: did not promote epithelium wound healing
Corneal epithelium [1]
  promotion of epithelium wound healing / migration: little effect promoting wound healing
ALK5 [3]
  kcat/Km: < 100 M⁻¹ s⁻¹

## LPPDMYECEVTLN [Hybrid 2/3]
ALK5 [4]
  Kd: 28.7 ± 3.9 µM

## LPPDMYECLRVAN [LumC18ΔC5, Lumican peptide …]
Corneal epithelium [1]
  promotion of epithelium wound healing / migration: little effect promoting wound healing

## Lumican: class II SLRP member, one of the major proteoglycans in the corneal stroma
Prostate cancer cell
  prostate cancer cell migration: inhibits prostate cancer cell migration
ALK5 [5]
  wound healing via C-terminal domain / TGFβRI interaction: promotes wound healing via its C-terminal domain due to its interaction with TGFβRI (ALK5)

## YEALRVANEVTLN [LumC13C-A, Lumican peptide … (Lumikine)]
Corneal epithelium [2]; 2 mm debridement, 10 μl eye drops 0.3 μM every 15 min for 5 h, between original wound edge and wound front
  epithelium migration distance: ~144 μm
Corneal epithelium [2]
  promotion of corneal epithelium wound healing: increased ability to promote wound healing
ALK5 [5]; synthetic LumC13-terminal peptide YEALRVANEVTLN
  binding to ALK5 to promote wound healing: binding ALK5 to promote wound healing
Corneal epithelium [1]
  promotion of epithelium wound healing / migration: promoted wound healing of corneal epithelium debridement of Lum^−/− mice to the same extent as injured wild type mice; also recorded: higher pharmaceutical activity of LumC13C-A compared to LumC13; also recorded: significantly promoted epithelium wound healing

## YECLRVANEVTLN [LumC13, peptide designed from the 13 C-terminal amino acids of lumican, …]
[6]
  dimerization in solution via disulfide bond formation: dimerization of the LumC13 peptides in solution via disulfide bond formation of cysteine residue, which reduces the activity of dimerized LumC13
Corneal epithelium [2]
  promotion of corneal epithelium wound healing: increased ability to promote wound healing
Corneal epithelium [2]; in vitro and in vivo wound healing assays
  promotion of epithelial cell migration (words, conclusion): essential to promote epithelial cell migration to the same extent as lumican
Corneal epithelium [1]
  promotion of epithelium wound healing / migration: moderately increased activity in promoting wound healing when compared to LumC13C-A
ALK5 [3]
  kcat/Km: 1e+06 ± 4000 M⁻¹ s⁻¹
